According to ChEMBL document CHEMBL1667756, “Design, synthesis and antibacterial activity of 3-methylenepyrrolidine formyl hydroxyamino derivatives as novel peptide deformylase inhibitors” (2011):
≈ marks a conversion by molar mass, not a printed value.

Assays:
Assay type in all cases: functional
[1] = system: Staphylococcus aureus; assay: Antibacterial activity against methicillin-susceptible Staphylococcus aureus ATCC 29213 by broth micro dilution technique
[2] = system: Staphylococcus aureus; assay: Antibacterial activity against Staphylococcus aureus ATCC 25923 by broth micro dilution technique
[3] = system: Staphylococcus epidermidis; assay: Antibacterial activity against methicillin-resistant Staphylococcus epidermidis ATCC 12228 by broth micro dilution technique
[4] = system: Staphylococcus aureus; assay: Antibacterial activity against methicillin-resistant Staphylococcus aureus ATCC 43300 by broth micro dilution technique
[5] = system: Staphylococcus epidermidis; assay: Antibacterial activity against methicillin-susceptible Staphylococcus epidermidis by agar dilution method
[6] = system: Streptococcus pneumoniae; assay: Antibacterial activity against penicillin-susceptible Streptococcus pneumoniae by agar dilution method
[7] = system: Staphylococcus aureus; assay: Antibacterial activity against methicillin-resistant Staphylococcus aureus by agar dilution method
[8] = system: Haemophilus influenzae; assay: Antibacterial activity against Haemophilus influenzae by agar dilution method
[9] = system: Staphylococcus aureus; assay: Antibacterial activity against methicillin-susceptible Staphylococcus aureus by agar dilution method
[10] = system: Staphylococcus epidermidis; assay: Antibacterial activity against methicillin-resistant Staphylococcus epidermidis by agar dilution method
[11] = system: Streptococcus pneumoniae; assay: Antibacterial activity against penicillin-resistant Streptococcus pneumoniae by agar dilution method
[12] = system: Escherichia coli; assay: Antibacterial activity against Escherichia coli by broth micro dilution technique
[13] = system: Streptococcus pneumoniae; assay: Antibacterial activity against Streptococcus pneumoniae ERY2 by broth micro dilution technique
[14] = system: Haemophilus influenzae; assay: Antibacterial activity against Haemophilus influenzae Q1 by broth micro dilution technique
[15] = system: Staphylococcus aureus; assay: Antibacterial activity against Staphylococcus aureus WCUH29 by broth micro dilution technique
[16] = system: Enterococcus faecalis; assay: Antibacterial activity against Enterococcus faecalis by broth micro dilution technique
[17] = system: Streptococcus pyogenes; assay: Antibacterial activity against Streptococcus pyogenes 1308007P by broth micro dilution technique
[18] = system: Moraxella catarrhalis; assay: Antibacterial activity against Moraxella catarrhalis 1502 by broth micro dilution technique
[19] = system: Streptococcus pneumoniae; assay: Antibacterial activity against Streptococcus pneumoniae 1629 by broth micro dilution technique
[20] = system: Streptococcus pneumoniae; assay: Antibacterial activity against Streptococcus pneumoniae N1387 by broth micro dilution technique
[21] = system: Enterococcus faecium; assay: Antibacterial activity against Enterococcus faecium X7501 by broth micro dilution technique
[22] = system: Haemophilus influenzae; assay: Antibacterial activity against AcrA deficient Haemophilus influenzae H128 by broth micro dilution technique
[23] = system: Streptococcus pyogenes; assay: Antibacterial activity against Streptococcus pyogenes 1307006P by broth micro dilution technique
[24] = system: Staphylococcus aureus; assay: Antibacterial activity against Staphylococcus aureus OXFORD by broth micro dilution technique
[25] = system: Haemophilus influenzae; assay: Antibacterial activity against Haemophilus influenzae H128 by broth micro dilution technique

SMILES	MIC [1] [µg/mL]	MIC [2] [µg/mL]	MIC [3] [µg/mL]	MIC [4] [µg/mL]	MIC [5] [µg/mL]	MIC [6] [µg/mL]	MIC [7] [µg/mL]	MIC [8] [µg/mL]	MIC [9] [µg/mL]	MIC [10] [µg/mL]	MIC [11] [µg/mL]	other results
C=C1C[C@@H](C(=O)Nc2ccc(O)cc2)N(C(=O)[C@H](CCCC)CN(O)C=O)C1	32 (≈ 82.2 µM)	8 (≈ 20.5 µM)	8 (≈ 20.5 µM)	4 (≈ 10.3 µM)								
C=C1C[C@@H](C(=O)Nc2ccc(F)c[n+]2[O-])N(C(=O)[C@H](CCCC)CN(O)C=O)C1	4 (≈ 9.79 µM)	2 (≈ 4.9 µM)	2 (≈ 4.9 µM)	1 (≈ 2.45 µM)								
C=C1C[C@@H](C(=O)Nc2ncc(C)s2)N(C(=O)[C@H](CC2CCCC2)CN(O)C=O)C1	0.5 (≈ 1.19 µM)	0.0625 (≈ 0.149 µM)	0.125 (≈ 0.297 µM)	0.0625 (≈ 0.149 µM)	1 (≈ 2.38 µM)	0.25 (≈ 0.594 µM)	0.0625 (≈ 0.149 µM)	1 (≈ 2.38 µM)	1 (≈ 2.38 µM)	0.5 (≈ 1.19 µM)	0.25 (≈ 0.594 µM)	
C=C1C[C@@H](C(=O)Nc2ccc(F)c[n+]2[O-])N(C(=O)[C@H](CC2CCCC2)CN(O)C=O)C1	2 (≈ 4.6 µM)	0.125 (≈ 0.288 µM)	0.5 (≈ 1.15 µM)	0.125 (≈ 0.288 µM)	0.125 (≈ 0.288 µM)	0.25 (≈ 0.575 µM)	0.125 (≈ 0.288 µM)	2 (≈ 4.6 µM)	0.5 (≈ 1.15 µM)	0.25 (≈ 0.575 µM)	0.0625 (≈ 0.144 µM)	
CN[C@H](CC(C)C)C(=O)N[C@H]1C(=O)N[C@@H](CC(N)=O)C(=O)N[C@H]2C(=O)N[C@H]3C(=O)N[C@H](C(=O)N[C@H](C(=O)O)c4cc(O)cc(O)c4-c4cc3ccc4O)[C@H](O)c3ccc(c(Cl)c3)Oc3cc2cc(c3O[C@@H]2O[C@H](CO)[C@@H](O)[C@H](O)[C@H]2O[C@H]2C[C@](C)(N)[C@H](O)[C@H](C)O2)Oc2ccc(cc2Cl)[C@H]1O [VANCOMYCIN]						1 (≈ 0.69 µM)					1 (≈ 0.69 µM)	
CC(=O)NC[C@H]1CN(c2ccc(N3CCOCC3)c(F)c2)C(=O)O1 [LINEZOLID]			0.5 (≈ 1.48 µM)		1 (≈ 2.96 µM)		0.5 (≈ 1.48 µM)		1 (≈ 2.96 µM)	1 (≈ 2.96 µM)		
C=C1C[C@@H](C(=O)N2CCOCC2)N(C(=O)[C@H](CC2CCCC2)CN(O)C=O)C1	8 (≈ 20.3 µM)	4 (≈ 10.2 µM)	4 (≈ 10.2 µM)	2 (≈ 5.08 µM)								
C=C1C[C@@H](C(=O)Nc2ncc(C)s2)N(C(=O)[C@H](CCCC)CN(O)C=O)C1	1 (≈ 2.53 µM)	0.5 (≈ 1.27 µM)	0.125 (≈ 0.317 µM)	0.125 (≈ 0.317 µM)	1 (≈ 2.53 µM)	0.25 (≈ 0.634 µM)	0.5 (≈ 1.27 µM)	4 (≈ 10.1 µM)	1 (≈ 2.53 µM)	2 (≈ 5.07 µM)	0.5 (≈ 1.27 µM)	MIC [12]: 64 µg/mL (≈ 162 µM); MIC [13]: 2 µg/mL (≈ 5.07 µM); MIC [14]: 4 µg/mL (≈ 10.1 µM); MIC [15]: 0.125 µg/mL (≈ 0.317 µM); MIC [16]: 4 µg/mL (≈ 10.1 µM); MIC [17]: 2 µg/mL (≈ 5.07 µM); MIC [18]: ≤ 0.06 µg/mL; MIC [19]: 2 µg/mL (≈ 5.07 µM); MIC [20]: 1 µg/mL (≈ 2.53 µM); MIC [21]: 2 µg/mL (≈ 5.07 µM); MIC [22]: ≤ 0.06 µg/mL; MIC [23]: 2 µg/mL (≈ 5.07 µM); MIC [24]: 0.5 µg/mL (≈ 1.27 µM); MIC [25]: 4 µg/mL (≈ 10.1 µM)
C=C1C[C@@H](C(=O)Nc2ccccc2)N(C(=O)[C@H](CCCC)CN(O)C=O)C1	8 (≈ 21.4 µM)	2 (≈ 5.36 µM)	2 (≈ 5.36 µM)	1 (≈ 2.68 µM)								
C=C1C[C@@H](C(=O)N2CCOCC2)N(C(=O)[C@H](CCCC)CN(O)C=O)C1	> 64	8 (≈ 21.8 µM)	16 (≈ 43.5 µM)	8 (≈ 21.8 µM)								
CCCC[C@H](CN(O)C=O)C(=O)N1CCC[C@H]1C(=O)Nc1ccc(F)c[n+]1[O-]	2 (≈ 5.05 µM)	0.5 (≈ 1.26 µM)	1 (≈ 2.52 µM)	0.5 (≈ 1.26 µM)	0.5 (≈ 1.26 µM)	0.125 (≈ 0.315 µM)	0.125 (≈ 0.315 µM)	2 (≈ 5.05 µM)	0.5 (≈ 1.26 µM)	0.125 (≈ 0.315 µM)	0.5 (≈ 1.26 µM)	
CC1(C)S[C@@H]2[C@H](NC(=O)[C@H](N)c3ccc(O)cc3)C(=O)N2[C@H]1C(=O)O [AMOXICILLIN]												MIC [12]: 1 µg/mL (≈ 2.74 µM); MIC [13]: ≤ 0.06 µg/mL; MIC [14]: 0.25 µg/mL (≈ 0.684 µM); MIC [15]: 64 µg/mL (≈ 175 µM); MIC [16]: 0.5 µg/mL (≈ 1.37 µM); MIC [17]: ≤ 0.06 µg/mL; MIC [18]: ≤ 0.06 µg/mL; MIC [19]: ≤ 0.06 µg/mL; MIC [20]: 2 µg/mL (≈ 5.47 µM); MIC [21]: 16 µg/mL (≈ 43.8 µM); MIC [22]: 64 µg/mL (≈ 175 µM); MIC [23]: ≤ 0.06 µg/mL; MIC [24]: 0.125 µg/mL (≈ 0.342 µM); MIC [25]: 32 µg/mL (≈ 87.6 µM)
C=C1C[C@@H](C(=O)Nc2ccc(F)cn2)N(C(=O)[C@H](CCCC)CN(O)C=O)C1	2 (≈ 5.1 µM)	1 (≈ 2.55 µM)	0.5 (≈ 1.27 µM)	0.125 (≈ 0.319 µM)								MIC [12]: > 64 µg/mL; MIC [13]: 8 µg/mL (≈ 20.4 µM); MIC [14]: 16 µg/mL (≈ 40.8 µM); MIC [15]: 0.5 µg/mL (≈ 1.27 µM); MIC [16]: 32 µg/mL (≈ 81.5 µM); MIC [17]: 4 µg/mL (≈ 10.2 µM); MIC [18]: 0.25 µg/mL (≈ 0.637 µM); MIC [19]: 16 µg/mL (≈ 40.8 µM); MIC [20]: 4 µg/mL (≈ 10.2 µM); MIC [21]: 4 µg/mL (≈ 10.2 µM); MIC [22]: 0.5 µg/mL (≈ 1.27 µM); MIC [23]: 4 µg/mL (≈ 10.2 µM); MIC [24]: 4 µg/mL (≈ 10.2 µM); MIC [25]: 16 µg/mL (≈ 40.8 µM)
C=C1C[C@@H](C(=O)Nc2ccccc2)N(C(=O)[C@H](CC2CCCC2)CN(O)C=O)C1	1 (≈ 2.5 µM)	0.5 (≈ 1.25 µM)	0.5 (≈ 1.25 µM)	0.25 (≈ 0.626 µM)								
C=C1C[C@@H](C(=O)Nc2ccc(F)cn2)N(C(=O)[C@H](CC2CCCC2)CN(O)C=O)C1	1 (≈ 2.39 µM)	0.5 (≈ 1.19 µM)	0.125 (≈ 0.299 µM)	0.0625 (≈ 0.149 µM)	0.5 (≈ 1.19 µM)	0.25 (≈ 0.597 µM)	0.25 (≈ 0.597 µM)	2 (≈ 4.78 µM)	0.5 (≈ 1.19 µM)	0.5 (≈ 1.19 µM)	0.25 (≈ 0.597 µM)	
O=C(O)c1cn(C2CC2)c2cc(N3CCNCC3)c(F)cc2c1=O [CIPROFLOXACIN]	0.5 (≈ 1.51 µM)	0.5 (≈ 1.51 µM)	0.25 (≈ 0.754 µM)	1 (≈ 3.02 µM)	0.25 (≈ 0.754 µM)	2 (≈ 6.04 µM)	1 (≈ 3.02 µM)	0.125 (≈ 0.377 µM)	1 (≈ 3.02 µM)	1 (≈ 3.02 µM)		
C=C1C[C@@H](C(=O)Nc2ccc(F)cc2)N(C(=O)[C@H](CC2CCCC2)CN(O)C=O)C1	2 (≈ 4.79 µM)	1 (≈ 2.4 µM)	1 (≈ 2.4 µM)	0.5 (≈ 1.2 µM)	0.5 (≈ 1.2 µM)	0.25 (≈ 0.599 µM)	0.25 (≈ 0.599 µM)	4 (≈ 9.58 µM)	1 (≈ 2.4 µM)	0.25 (≈ 0.599 µM)	0.25 (≈ 0.599 µM)	
C=C1C[C@@H](C(=O)NC2CC2)N(C(=O)[C@H](CC2CCCC2)CN(O)C=O)C1	8 (≈ 22 µM)	4 (≈ 11 µM)	4 (≈ 11 µM)	1 (≈ 2.75 µM)	1 (≈ 2.75 µM)	1 (≈ 2.75 µM)	0.5 (≈ 1.38 µM)	4 (≈ 11 µM)	2 (≈ 5.5 µM)	4 (≈ 11 µM)	1 (≈ 2.75 µM)	
C=C1C[C@@H](C(=O)Nc2ccc(F)cc2)N(C(=O)[C@H](CCCC)CN(O)C=O)C1	4 (≈ 10.2 µM)	1 (≈ 2.55 µM)	1 (≈ 2.55 µM)	0.5 (≈ 1.28 µM)								
CC1(C)S[C@@H]2[C@H](NC(=O)Cc3ccccc3)C(=O)N2[C@H]1C(=O)O [PENICILLIN G]	1 (≈ 2.99 µM)	0.0625 (≈ 0.187 µM)	2 (≈ 5.98 µM)	64 (≈ 191 µM)	4 (≈ 12 µM)	2 (≈ 5.98 µM)	64 (≈ 191 µM)	16 (≈ 47.8 µM)	0.5 (≈ 1.5 µM)	64 (≈ 191 µM)	64 (≈ 191 µM)	
